row,Structure (SMILES),melting point [°C]
1,CCCC(=O)N[C@H]1CC[C@H](CCN2CCC(c3cccc4c3CCO4)CC2)CC1,196
2,CC(C)(C)c1ccc(S(=O)(=O)C=CSc2ccccc2)cc1,258
3,CCCNC(=O)N(CC(=O)OCC)CC1CC2c3cccc4[nH]cc(c34)CC2N(C)C1 (configuration not stated),109 to 110
4,CCCCCCCCCCCCCCOc1ccc(C(=O)N(CC(=O)OC)CC(=O)OC)cc1OCCCCCCCCCCCCCC,70 to 71
5,COc1ccc(Cn2c(N)c(NC(=O)C(C)C)c(=O)[nH]c2=O)cc1OC,207 to 210
6,CCc1ccc2c3c(ccc2n1)OCC(CN1CC=C(c2c[nH]c4ccccc24)CC1)O3 (configuration not stated),190
7,CC1CC2C3CCC4=CC(=O)C=CC4(C)C3=CCC2(C)C1C(=O)CN1CCN(c2cc(NC34CC5CC(CC(C5)C3)C4)nc(NC34CC5CC(CC(C5)C3)C4)n2)CC1 (configuration not stated),210 to 220
8,Cc1cc(I)ccc1OC=C1C=CC=CC1n1nnn(C)c1=O (configuration not stated),128 to 130
9,CCOC(=O)N1CCC(c2noc(-c3cc(Cl)c(N)c4c3OCC4)n2)CC1,162
10,CCC(C)Nc1c(-c2ccc(OC)cc2Cl)c(Cl)nc2ncnn12 (configuration not stated),116
11,CCCOC(=O)c1cn(CC)c2nc(N3CCNCC3)ncc2c1=O,152
12,COC(=O)c1cc(C(=O)c2c(C)c(OC)c3c(OCC(=O)O)cccn23)ccc1N,164
13,CN(C)CCc1c(CC(C)(C)[N+](=O)[O-])c2ccccc2n1C,87 to 90
14,OCCOc1nc2ncnc(NCc3ccco3)c2[nH]1,182 to 184
15,Cc1c(NC(=O)CC(C)(C)C)cc2c(c1C)OC(C)(C)C2c1cccc(C(C)C)c1 (configuration not stated),162 to 163
16,CC(C)(C)c1cc(CCc2ccccc2NC(=O)NC2CCCCCCC2)cc(C(C)(C)C)c1O,174 to 176
17,CCN(CC)c1cccc(N(CC)CC)c1C(=O)O,112 to 114
18,CN1Cc2ccccc2C(Oc2ccc([N+](=O)[O-])cc2)C1 (configuration not stated),142 to 143
19,CC(C)(C)OC(=O)NCc1cccc(C2CCNCC2)c1,79 to 84
20,COC(=O)C(C(C)C)N1CC(NC(=O)Cc2ccccc2)C1=O (configuration not stated),105 to 107
21,CCC(C)N1C(=O)c2ccccc2Oc2ncccc21 (configuration not stated),137 to 138
22,OC1Cc2ccccc2Sc2cc(Cl)c(F)cc21 (configuration not stated),86 to 87

row,Structure (SMILES),melting point [°C]
1,COC(=O)c1ccc(NN)c(Cl)c1,120
2,CC(C)NC(C)CC1=C2c3ccc(O)cc3CCC2CCNC1=O (configuration not stated),202 to 204
3,CCC#CCCOc1cc(/C=C/C(=O)Nc2ccccc2C(=O)O)ccc1OC,163 to 165
4,CC1N=C(c2cccnc2)NC1=O (configuration not stated),238 to 241
5,CCOC(=O)c1cc(O)n(-c2ccccc2)n1,183 to 184
6,CCOC(=O)Nc1c(Cl)cc(OC)c(OC)c1C(=O)OCC,111 to 113
7,COc1ccc2oc(C(O)Cc3ccccc3)cc2c1 (configuration not stated),69 to 70
8,CC(=O)Nc1nc(NC(C)=O)nc(NC2CC2)n1,267 to 269
9,CC(=Cc1ccc(C(C)C)cc1)COc1cc(C)c(NC=O)c(C)c1C,153 to 155
10,COc1cc(F)c2ncc(F)cc2c1,122
11,CC(=O)N[C@@H]1CN(C(=O)c2nn(C)c3ccccc23)C[C@@H]1C (relative stereo),202 to 204
12,CC(C)(C)c1ocnc1C=C(O)C(=O)O,153 to 155
13,CCOC(=O)c1c([N+](=O)[O-])c(-c2cccc([N+](=O)[O-])c2)[nH]c(=O)c1C(=O)OCC,188 to 190
14,COc1ccc(C2CCOCC2)c2sc(-c3ncc[nH]3)nc12,220 to 224
15,CCCCCCNC(=O)[C@H](C)C[C@H](O)[C@H](CC1CCCCC1)NC(=O)[C@H](Cc1cscn1)NC(=O)OC(C)(C)C,156 to 158
16,CCCCCCc1ccc(-n2c(-c3ccc(Br)cc3)ccc2-c2ccc(Br)cc2)cc1,198 to 199
17,CSc1nc(=O)n(CC(=O)O)cc1F,244 to 245
18,CCOC(=O)NN=Cc1nc[nH]c1C,195 to 203
19,O=C1c2cc3nnn(C4CCC4)c(=O)c3cc2OC2CCCN12 (configuration not stated),216 to 218
20,CCOC(=O)c1cc2c3cc(Br)ccc3ncn2c1,183 to 185
21,CC(C#Cc1cccc(C=Cc2ccccn2)c1)N(O)C(N)=O (configuration not stated),122 to 126
22,Cc1ccc(/C=C/c2ccccc2[N+](=O)[O-])c([N+](=O)[O-])c1,170 to 171

# The next lines start with the values.
row,melting point [°C],Structure (SMILES)
1,206 to 208,COc1ccc2c(Cc3c(Cl)cncc3Cl)nnc(-c3ccccc3)c2c1
2,120 to 122,C[C@H](Oc1ccc(-c2cccc(OCC(N)=O)c2)cc1)[C@H](O)CCc1cccnc1
3,272 to 275,NC(=O)Cc1cc(Oc2ccc3c(ccn3C(=O)Nc3ccc(N4CCOCC4)c(C(F)(F)F)c3)c2)ncn1
4,113 to 115,O=C(NOCC(O)CO)c1ccc(F)c(F)c1Nc1ccccc1F (configuration not stated)
5,171 to 173,CS(=O)(=O)c1ccc(-c2sc(COc3cc(Cl)cc(Cl)c3)nc2-c2ccc(F)cc2)cc1
6,121 to 122,O=C(CCC(=O)N1CCC(c2ccc(Cl)cc2)CC1)c1ccc2c(c1)CNCC2
7,204 to 206,CC(=O)N1C(=O)c2cccnc2N(C2CC2)c2nc(Cl)cc(C)c21
8,227 to 229,O=C(Nc1cccc(S(=O)(=O)N2CCCC2CO)c1)c1cnn2c(C(F)(F)F)cc(-c3ccc(Cl)cc3)nc12 (configuration not stated)
9,236 to 240,Fc1cccc(COc2ccc(Nc3ncnc4cc(C#Cc5ncccn5)sc34)cc2Cl)c1
10,80,COC(=O)CCC#Cc1cc(Cl)ccc1NS(=O)(=O)c1ccc(C(F)(F)F)cc1
11,184 to 185,O=C(Nc1nc(=O)c2cnn3c2n1CC=C3c1cccc(C(F)(F)F)c1)C(F)(F)F
12,123 to 124,CCOC(=O)N1CCC(=C2c3ccccc3C=Cc3ccccc32)CC1
13,108 to 109,CCN(CC)C(=O)n1c(SC(F)(F)C(F)F)nc(-c2ccccc2)c1-c1ccccc1
14,121,COc1cc(-c2nc(NC(=O)c3cc4ccccc4n3CCCCCC(=O)O)sc2CCC2CCCCC2)c(OC)cc1Cl
15,154 to 156,COc1cc(Nc2nccc(Nc3cccc(OC(F)(F)F)c3)n2)cc(OC)c1OC
16,123 to 124,CCCc1nn(-c2ccc(C(F)(F)F)cn2)cc1CCCCOc1cc(CCC(=O)O)n(-c2ccccc2)n1
17,105 to 107,C=CCOC(=O)c1cccc(NC(=O)NCC(=O)N(CC(=O)OC(C)(C)C)c2ccccc2C(=O)c2ccccc2)c1
18,102 to 103,O=C(CCNC1CC1)Nc1cc(-c2nnc(SCc3cccc(F)c3)o2)ccn1
19,218 to 220,Cc1cccc(NC(=O)NC2CN(C(=O)C(C)(C)C)c3ccc(C)cc3N(CC(=O)c3ccccc3C)C2=O)c1 (configuration not stated)
20,110 to 112,O=C(O)c1cccc(NC(=O)C(CS)CC2CN(Cc3ccccc3)CCO2)c1 (configuration not stated)
21,161 to 163,COC(=O)C1C(=O)Nc2ccc(C(F)(F)F)cc2CC1c1ccc(OC)cc1 (configuration not stated)
22,199 to 201,CCOC(=O)Cc1c(-c2ccc(OC)cc2)sc2c1c(=O)c(C(=O)OCC)cn2Cc1ccccc1F
23,175 to 177,COCC1CN(c2ccc(C3CCN(Cc4ccccc4)CC3)cc2)C(=O)O1 (racemic)

# — a melting point compilation (Tetko et al.; mined from patent text by program, amines drawn as free bases though some values may be those of a salt)
